Results reported in patent publication EP0293146A1, “Benzofuro [3,2-c] quinoline compounds” (Kissei Pharmaceutical Co Ltd, priority 1987, dated 1988).

Key:
[1] = tested on: Femur was isolated from 10- to 11-day chick embryo; settings: 100 µM
Description: Inhibitory effect of various compounds on bone resorption was tested according to the method described in "Advanced Tissue Cultures For In Vitro Assay And Production" (pages 111-114, edited by Isao Yamane & Hiroyoshi Endo, Published by SOFT SCIENCE, Inc. Tokyo).
Femur was isolated from 10- to 11-day chick embryo. After cleaned from adherent soft tissues, the preparation was precultivated in 1 ml of BGJb-HW2 culture medium containing benzofuro[3,2-c]quinoline derivatives of the present invention at 37° C for 24 hours using the roller-tube method. Tested compounds were dissolved in dimethylsulfoxide at a concentration of 0.1 M and the solution was diluted with the culture medium to make a final concentration of 10-^4 M of those compounds. In the case of control group, the same volume of dimethylsulfoxide was added.
On the next day, the precultivated femur was further cultivated for 2 hours at 37° C in 1 ml of fresh culture medium containing 1 µCi/ml of ^45CaCl2 to label the bone mineral with ^45Ca. Then, the cultivated bone was rinsed with a phosphate-buffered saline warmed at 37' C to remove ^45Ca adhered to the bone. ^45Ca-Labelled bone was again cultivated using the roller-tube method (10 revolutions/hr), and the radioactivity of ^45Ca in an aliquot of the culture medium was determined by liquid scintillation counter at a point of 12, 24, 48 and 72 hours, respectively. The culture medium was freshed at each determination of the radioactivity. After completion of the cultivation, the bone was immersed in 1 ml of 1 N HCI for 24 hours to elute all calcium in the bone, and the remaining radioactivity in the bone was determined.
From the obtained data, the rate of remaining radioactivity of the bone to the initial radioactivity of the bone was measured at each observation. Then the eluting rate of bone mineral by osteoclasts was obtained by linear-regression of decay curve for the rate of remaining radioactivity in the bone after 24 to 72 hours of the cultivation, and turnover rate of calcium in the bone mineral accumulated in the cultivated bone was estimated as biological half-life (T1/2).
The potency of the inhibition of presented compounds was calculated by the following equation using T1/2.

[2] = tested on: femur of rats loaded low calcium diets; assay: Effect on calcium and phosphorus contents in femur of rats loaded low calcium diets; assay type: in vivo, male Wistar rats; settings: 300 mg/kg orally once a day for 2 weeks, mean±standard error of the mean of 10 observations
Description: Twenty male Wistar rats of 3 weeks age were divided into 2 groups. All animals were raised with low calcium diets. Test compound, 3,9-dihydroxy-5H-benzofuro [3,2-c]quinolin-6-one (compound 2) suspended in 0.5% sodium carboxymethyl cellulose solution (CMC) was orally administered to 1 group at a dose of 300 mg/kg once a day for 2 weeks. Another group recieved the same volume of CMC. After completion of the experiment, calcium and phosphorus contents in the femur were determined.
The results were shown in the following table as mean±standard error of the mean of 10 observations.

[3] = tested on: Femur was isolated from 9-day chick embryo; assay: Stimulatory effect on ossification (femur organ culture, calcium content); assay type: cell-based; settings: 10-^5 M; cultivated for 6 days; eluted calcium versus paired control femur; mean value of 6 observations
Description: Stimulatory effect of various compounds on ossification was tested according to the method described in "Advanced Tissue Cultures For In Vitro Assay And Production" (pages 111-114, edited by Isao Yamane & Hiroyoshi Endo, Published by SOFT SCIENCE, Inc. Tokyo).
Femur was isolated from 9-day chick embryo. After cleaned from adherent soft tissues, one femur of a paired femur was used for a test of compound of the present invention, and the other femur was used as control group. One preparation was placed directly on the inner surface of a glass roller-tube, and 2 ml of BGJb-HW2 culture medium was added to each tube. Each preparation was cultivated at 37° C by the roller-tube method (10 revolutions/hr) for 6 days. During the cultivation, femur length was measured, and the culture medium was freshed every other day. Tested compounds were dissolved in dimethylsulfoxide at a concentration of 0.01 M and the solution was diluted by the culture medium to make a final concentraiton of 10-^5 M of those compounds. In the case of control group, the same volume of dimethylsulfoxide was added.
After completion of the cultivation, the bone was immersed in 1 N HCI for 24 hours to elute all calcium in the bone, and the eluted calcium was determined by chelating method using orthocresolphthalein.
The potency of the stimulatory effect on ossification of presented compounds was calculated by the following equation. [formula]
The results are shown in the following table as the mean value of 6 observations.

O=c1[nH]c2cc(O)ccc2c2oc3ccccc3c12 [Compound 1, 3-Hydroxy-5H-benzofuro[3,2-c]quinolin-6-one]
Inhibitory potency on bone resorption [1]: 1.24

O=c1[nH]c2cc(O)ccc2c2oc3cc(O)ccc3c12 [Compound 2, 3,9-Dihydroxy-5H-benzofuro[3,2-c]quinolin-6-one]
Inhibitory potency on bone resorption [1]: 1.97 | Amount of calcium (mg/femur) [2]: 8.1±0.50 mg/femur | Amount of phosphorus (mg/femur) [2]: 5.1±0.26 mg/femur | Stimulatory potency on ossification [3]: 1.11

O=c1[nH]c2cc(O)ccc2c2oc3ccc(O)cc3c12 [Compound 3, 3,8-Dihydroxy-5H-benzofuro[3,2-c]quinolin-6-one]
Inhibitory potency on bone resorption [1]: 2.52

CC(C)Oc1ccc2c(c1)[nH]c(=O)c1c3ccccc3oc21 [Compound 4, 3-Isopropoxy-5H-benzofuro[3,2-c]quinolin-6-one]
Inhibitory potency on bone resorption [1]: 1.16

O=c1[nH]c2cc(OCCCO)ccc2c2oc3ccccc3c12 [Compound 5, 3-(3-Hydroxypropoxy)-5H-benzofuro[3,2-c]quinolin-6-one]
Inhibitory potency on bone resorption [1]: 1.26

CCOC(=O)C(C)Oc1ccc2c(c1)[nH]c(=O)c1c3ccccc3oc21 (stereo not drawn) [Compound 6, 3-(1-Ethoxycarbonylethoxy)-5H-benzofuro[3,2-c]quinolin-6-one]
Inhibitory potency on bone resorption [1]: 1.10

CC(Oc1ccc2c(c1)[nH]c(=O)c1c3ccccc3oc21)C(=O)O (stereo not drawn) [Compound 7, 3-(1-Carboxyethoxy)-5H-benzofuro[3,2-c]quinolin-6-one]
Inhibitory potency on bone resorption [1]: 1.10

CC(C)Oc1ccc2c(c1)[nH]c(=O)c1c3ccc(OC(C)C)cc3oc21 [Compound 8, 3,9-Diisopropoxy-5H-benzofuro[3,2-c]quinolin-6-one]
Inhibitory potency on bone resorption [1]: 1.24

CC(C)Oc1ccc2c(c1)[nH]c(=O)c1c3ccc(O)cc3oc21 [Compound 9, 9-Hydroxy-3-isopropoxy-5H-benzofuro[3,2-c]quinolin-6-one]
Inhibitory potency on bone resorption [1]: 2.89 | Stimulatory potency on ossification [3]: 1.08

O=c1[nH]c2cc(OCCCO)ccc2c2oc3cc(OCCCO)ccc3c12 [Compound 10, 3,9-Bis(3-hydroxypropoxy)-5H-benzofuro[3,2-c]quinolin-6-one]
Inhibitory potency on bone resorption [1]: 1.40

O=c1[nH]c2cc(OCCCO)ccc2c2oc3cc(O)ccc3c12 [Compound 11, 9-Hydroxy-3-(3-hydroxypropoxy)-5H-benzofuro[3,2-c]quinolin-6-one]
Inhibitory potency on bone resorption [1]: 2.89 | Stimulatory potency on ossification [3]: 1.14

CCOC(=O)C(C)Oc1ccc2c(c1)[nH]c(=O)c1c3ccc(OC(C)C(=O)OCC)cc3oc21 (stereo not drawn) [Compound 12, 3,9-Bis(1-ethoxycarbonylethoxy)-5H-benzofuro[3,2-c]quinolin-6-one]
Inhibitory potency on bone resorption [1]: 1.16

COc1ccc2c(c1)[nH]c(=O)c1c3ccc(OC)cc3oc21 [Compound 13, 3,9-Dimethoxy-5H-benzofuro[3,2-c]quinolin-6-one]
Inhibitory potency on bone resorption [1]: 1.04
